Measurements as given in publication PMC8805583, “Discovery of Herbacetin as a Novel SGK1 Inhibitor to Alleviate Myocardial Hypertrophy” (Advanced Science, 2021).

Experiment: Pharmacokinetics and tissue distribution after single oral administration
Type: in vivo, Sprague-Dawley rats
Details: single oral dose 40 mg kg−1
Experimental: Finally, we evaluate the safety and pharmacokinetics of HBT to ensure its druggability. […] Single dose administration of HBT at 40 mg kg^−1 was uptaken rapidly with a maximal plasma concentration of ≈6.73 ng mL^−1 after 10 min (Figure S14A, Supporting Information).
Figure S13. Serum level of biochemical markers in mice of Ctrl and Ctrl + HBT groups. Data were analyzed using unpaired two-tailed t test and data were expressed as means ± SD, ns: no […]
Figure S14. Plasma concentration (A) and in vivo distribution (B) of HBT after single oral administration with dosage of 40mg/kg rat weight (n=5-6). The quantitation of HBT was performed by LC-MS/MS analysis. […]
or Fluo-4 AM working solution was added to each well and incubated at 37℃ for 20 minutes.
Then the cells were washed with PBS for 3 times and images were acquired using an ImageXpress Micro® Confocal High-Content Imaging System (Molecular Devices). The mean fluorescence intensity of cells positive for DCFH-DA or Fluo-4 AM staining was […]
4. Histology and Immunohistochemistry (IHC)
At the end of the experiment, mice were sacrificed and the hearts were harvested, fixed in 4% formalin, and paraffin embedded. Fibrosis was detected with Masson’s trichrome staining kit (Sigma) according to the manufacturer’s protocol. SGK1 expression of cardiomyocytes was determined by staining cells with antibodies specific for SGK1.
RT-PCR was performed to validate DEGs in the FoxO signaling pathway in response to Ext.R and also HBT’s effect on hypertrophic cardiomyocytes stimulated with phenylephrine. Total RNA isolation, reverse transcription and quantitative RT-PCR were performed using an Ultrapure RNA Kit, a HiFiScript First Strand cDNA Synthesis Kit, and an UltraSYBR Mixture Kit (CWBIO) respectively, according to the manufacturer's instructions. Relative target gene mRNA expression level was normalized to GAPDH. Primer sequences of genes […]
6. Pharmacokinetics studies
Twelve male Sprague-Dawley rats, weighing 250 ± 10 g, were purchased from Huafukang biological technology (Beijing, China). […]

SMILES: O=c1c(O)c(-c2ccc(O)cc2)oc2c(O)c(O)cc(O)c12 [HBT, herbacetin]
- Tmax (male, Sprague-Dawley, plasma, rat, read-out: time of maximal plasma concentration (converted)): 10 min
- tissue distribution (heart, liver, kidney) (at time of maximal plasma concentration): readily detected
- maximal plasma concentration (rat): ≈ 6.73 ng mL^−1
